Source: patent US10227331B2 (priority 2015, dated 2019)

How the values were obtained:
VIM-1 = VIM-1 (Pseudomonas aeruginosa (strain ATCC 15692 / DSM 22644 / CIP 104116 / JCM 14847 / LMG 12228 / 1C / PRS 101 / PAO1), UniProt A0A0F7KYQ8); assay: biochemical; details: CCF2-FA substrate, 2 hours at 25° C
Method in brief: (§1)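 Inhibitor was mixed with the metallo-β-lactamase and CCF2-FA. After 2 hours at 25° C, fluorescence of the coumarin–fluorescein cephalosporin substrate was read. IC50 was calculated with a 4-parameter fit.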

[1] = system: Klebsiella pneumoniae expressing VIM-1 (IHMA599644); assay type: cell-based; details: with imipenem 1 μg/ml; 95% inhibition of bacterial growth
Method in brief: (§2)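 Colonies from overnight 35 °C blood-agar cultures were suspended in saline, diluted 1:100 into 1.1× CAMHB and exposed to test compound with or without imipenem at 1 μg/ml. After 22–24 h at 35 °C, absorbance was read to find the concentration restoring imipenem susceptibility.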

[2] = system: Serratia marcescens expressing IMP-1 (CL5741); assay type: cell-based; details: with imipenem 1 μg/ml; 95% inhibition of bacterial growth
Method in brief: as §2

[3] = system: Escherichia coli expressing NDM-1 (CLB30005, CLB30016); assay type: cell-based; details: with imipenem 1 μg/ml; 95% inhibition of bacterial growth
Method in brief: as §2

NDM-1 = NDM-1 (Klebsiella pneumoniae, UniProt C7C422); assay: biochemical; assay type: biochemical; details: CCF2-FA substrate, 2 hours at 25° C; read-out: NDM-1 IC50
Method in brief: as §1

IMP-1 = IMP-1 (Serratia marcescens, UniProt P52699); assay: biochemical; assay type: biochemical; details: CCF2-FA substrate, 2 hours at 25° C; read-out: IMP-1 IC50
Method in brief: as §1

[4] = system: P. aeruginosa expressing IMP-1, efflux+ (MB9798); assay type: cell-based, Pseudomonas aeruginosa; details: for P. aeruginosa expressing IMP-1, efflux+ (MB9798) MITC95: imipenem at 2 μg/mL, in the presence of a class A, C, D serine β-lactamase inhibitor closely related to relebactam; for Efflux ratio: ratio MITC95 PA_9798/MITC95 PA_9799
Text: (§3) The strain background is Pseudomonas aeruginosa PAO1.

[5] = system: P. aeruginosa expressing IMP-1, efflux− (MB9799); assay: Efflux: concentration of MBL inhibitor which restores susceptibility to imipenem; assay type: cell-based, Pseudomonas aeruginosa; details: imipenem at 2 μg/mL, in the presence of a class A, C, D serine β-lactamase inhibitor closely related to relebactam
Text: as §3

Chain of IMP-1 (P52699 whole entry, looked up, species assumed): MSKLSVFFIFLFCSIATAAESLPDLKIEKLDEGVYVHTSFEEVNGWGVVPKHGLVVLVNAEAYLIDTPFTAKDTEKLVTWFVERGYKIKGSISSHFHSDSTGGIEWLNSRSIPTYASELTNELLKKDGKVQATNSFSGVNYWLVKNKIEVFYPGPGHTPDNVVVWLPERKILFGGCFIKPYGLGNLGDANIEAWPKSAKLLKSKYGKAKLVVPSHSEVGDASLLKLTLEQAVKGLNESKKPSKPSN
Chain of NDM-1 (C7C422 whole entry, looked up, species assumed): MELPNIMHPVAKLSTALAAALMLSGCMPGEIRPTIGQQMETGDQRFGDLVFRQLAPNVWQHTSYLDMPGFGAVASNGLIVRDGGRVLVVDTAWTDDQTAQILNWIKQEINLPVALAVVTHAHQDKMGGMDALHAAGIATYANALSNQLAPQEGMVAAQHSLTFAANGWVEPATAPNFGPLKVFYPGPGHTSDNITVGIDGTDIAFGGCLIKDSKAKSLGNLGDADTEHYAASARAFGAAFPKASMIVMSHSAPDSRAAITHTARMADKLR

| Structure (SMILES) | IC50 (VIM-1) [nM] | Klebsiella pneumoniae expressing VIM-1 (IHMA599644) MITC95 [1] [µM] | Serratia marcescens expressing IMP-1 (CL5741) MITC95 [2] [µM] | Escherichia coli expressing NDM-1 (CLB30016) MITC95 [3] [µM] | IC50 (NDM-1) [nM] | IC50 (IMP-1) [nM] | P. aeruginosa expressing IMP-1, efflux+ (MB9798) MITC95 [4] [µM] | Efflux ratio [4] | P. aeruginosa expressing IMP-1, efflux− (MB9799) MITC95 [5] [µM] |
| --- | --- | --- | --- | --- | --- | --- | --- | --- | --- |
| NS(=O)(=O)c1c(S(=O)(=O)C2CNC2)ccc(-c2cccc3scnc23)c1-c1nn[nH]n1 [Example 201, 6-(Azetidin-3-ylsulfonyl)-3-(benzo[d]thiazol-4-yl)-2-(2H-tetrazol-5-yl)benzenesulfonamide] | 0.176 | 3.125 | 1.563 | 0.7813 | 0.0956 | 0.153 | 1.563 | 2.00 | 0.7813 |
| NCCS(=O)(=O)c1ccc(-c2cccc3c2nc(N)n3C2CNC2)c(-c2nn[nH]n2)c1S(N)(=O)=O [Example 202, 3-(2-amino-1-(azetidin-3-yl)-1H-benzo[d]imidazol-4-yl)-6-((2-aminoethyl)sulfonyl)-2-(2H-tetrazol-5-yl)benzenesulfonamide] | 1.1 | 3.125 | 3.125 | 1.563 | 2.92 | 0.859 | 6.25 | 4.00 | 1.563 |
| NC1CCC(c2ccc(S(=O)(=O)CC3CNC3)c(S(N)(=O)=O)c2-c2nnn[nH]2)CC1 (stereo not drawn) [Example 203, 3-(4-aminocyclohexyl)-6-((azetidin-3-ylmethyl)sulfonyl)-2-(1H-tetrazol-5-yl)benzenesulfonamide] | 0.591 | 1.563 | 1.563 | 3.125 | 11.2 | 22.9 | 3.125 | 4.00 | 0.7813 |
| NS(=O)(=O)c1c(S(=O)(=O)CC2CNC2)ccc([C@H]2CC[C@H](N)CC2)c1-c1nnn[nH]1 [Example 204, 3-((1r,4r)-4-aminocyclohexyl)-6-((azetidin-3-ylmethyl)sulfonyl)-2-(1H-tetrazol-5-yl)benzenesulfonamide] | 1.04 | 1.563 | 1.563 | 0.7813 | 16.2 | 37.5 | 1.563 | 2.00 | 0.7813 |
| NS(=O)(=O)c1c(S(=O)(=O)CC2CNC2)ccc([C@H]2CC[C@@H](N)CC2)c1-c1nnn[nH]1 [Example 205, 3-((1s, 4s)-4-aminocyclohexyl)-6-((azetidin-3-ylmethyl)sulfonyl)-2-(1H-tetrazol-5-yl)benzenesulfonamide] | 6.64 | 3.125 | 3.125 | 1.563 | 44.6 | 82.5 | 6.25 | 2.00 | 3.125 |
| NC1CCC(c2ccc(S(=O)(=O)C3CCNCC3)c(S(N)(=O)=O)c2-c2nnn[nH]2)CC1 (stereo not drawn) [Example 206, 3-(4-aminocyclohexyl)-6-(piperidin-4-ylsulfonyl)-2-(1H-tetrazol-5-yl) benzenesulfonamide] | 0.857 | 3.125 | 3.125 | 6.25 | 20.3 | 23.5 | 3.125 | 2.00 | 1.563 |
| NS(=O)(=O)c1c(S(=O)(=O)C2CCNCC2)ccc([C@H]2CC[C@H](N)CC2)c1-c1nnn[nH]1 [Example 207, 3-((1r,4r)-4-aminocyclohexyl)-6-(piperidin-4-ylsulfonyl)-2-(1H-tetrazol-5-yl) benzenesulfonamide] | 0.71 | 3.125 | 3.125 | 2.344 | 15.9 | 24.6 | 3.125 | 2.00 | 1.563 |
| NS(=O)(=O)c1c(S(=O)(=O)C2CCNCC2)ccc([C@H]2CC[C@@H](N)CC2)c1-c1nnn[nH]1 [Example 208, 3-((1s,4s)-4-aminocyclohexyl)-6-(piperidin-4-ylsulfonyl)-2-(1H-tetrazol-5-yl) benzenesulfonamide] | 18.6 | 6.25 | 3.125 | 1.563 | 20.6 | 124 | 6.25 | 2.00 | 3.125 |
| CS(=O)(=O)c1ccc([C@H]2CC[C@@H](N)CC2)c(-c2nnn[nH]2)c1S(N)(=O)=O [Example 209, 3-((1s,4s)-4-aminocyclohexyl)-6-(methylsulfonyl)-2-(1H-tetrazol-5-yl) benzenesulfonamide] | 52.1 | 25 | 6.25 | 3.125 | 16.4 | 65.3 | 50 | 16.00 | 3.125 |
| CS(=O)(=O)c1ccc([C@H]2CC[C@H](N)CC2)c(-c2nnn[nH]2)c1S(N)(=O)=O [Example 210, 3-((1r,4r)-4-aminocyclohexyl)-6-(methylsulfonyl)-2-(1H-tetrazol-5-yl) benzenesulfonamide] | 0.566 | 3.125 | 1.563 | 3.125 | 32.2 | 7.76 | 12.5 | 16.00 | 0.7813 |
| CCCS(=O)(=O)c1ccc(C2=CCC(N)CC2)c(-c2nnn[nH]2)c1S(N)(=O)=O (stereo not drawn) [Example 211, 4′-amino-4-(propylsulfonyl)-2-(1H-tetrazol-5-yl)-2′,3′,4′,5′-tetrahydro-[1,1′-biphenyl]-3-sulfonamide] | 0.785 | 25 | 6.25 | 12.5 | 24.3 | 6.32 | 50 | 31.99 | 1.563 |
| NS(=O)(=O)c1c(S(=O)(=O)C2CNC2)ccc([C@H]2CC[C@H](N)CC2)c1-c1nnn[nH]1 [Example 212, 3-((1r,4r)-4-aminocyclohexyl)-6-(azetidin-3-ylsulfonyl)-2-(1H-tetrazol-5-yl) benzenesulfonamide] | 0.864 | 1.563 | 1.563 | 0.7813 | 11.3 | 30.2 | 1.563 | 2.00 | 0.7813 |
| NS(=O)(=O)c1c(S(=O)(=O)C2CNC2)ccc([C@H]2CC[C@@H](N)CC2)c1-c1nnn[nH]1 [Example 213, 3-((1s,4s)-4-aminocyclohexyl)-6-(azetidin-3-ylsulfonyl)-2-(1H-tetrazol-5-yl) benzenesulfonamide] | 7.04 | 3.125 | 1.563 | 1.563 | 12.9 | 68.3 | 6.25 | 4.00 | 1.563 |
